Columns and labels:
Type in all cases: cell-based
[1] = system: C2C12 cells (murine myoblast cells); test: Proliferation assay (alamarBlue) with C2C12 cells; conditions: Mus musculus, compound at 20 μM, read-out: Activity Range: weighted arithmetic mean (AVEw) of normalized fluorescence intensity, relative to DMSO basis level 1.0
Excerpt: (§1) The antiproliferative activities of compounds falling under formula (Ia), (Tb) and (Ic), respectively, were investigated on cells or cell lines originating from a disorder of the haematopoietic system, including the myeloid cell compartment and the lymphoid cell compartment (T-cells and B-cells), the neuroendocrine system, the cervix, the breast, the ovaries, the lung, the gastrointestinal tract, and the mucosal epithelium, as well as from the skin epithelium and from the muscle. To this end, HL-60 cells, NB-4 cells, HH cells, RPMI-8402 cells, TANOUE cells, TT cells, HeLa cells, MDA-MB-231 cells, FU-OV-1 cells, LOU-NH91 cells, 23132/87 cells, CAL-27 cells, BHY cells, SCC-25 cells, A-431 cells, human primary epidermal keratinocytes (HPEK), and C2C12 cells were seeded into 96-well plates suitable for fluorescence assays (CORNING #3598) at following initial cell numbers: 1000 cells per well for HL-60; 1000 cells per well for NB-4; 5000 cells per well for HH; 5000 cells per well for RPMI-8402; 1500 cells per well for TANOUE; 9000 cells per well for TT; 2000 cells per well for HeLa; 3000 cells per well for MDA-MB-231; 3000 cells per well for FU-OV-1; 4000 cells per well for LOU-NH91; 2000 cells per well for 23132/87; 2000 cells per well for CAL-27; 1500 cells per well for BHY; 1500 cells per well for SCC-25; 700 cells per well for A-431; 1000 cells per well for HPEK; 500 cells per well for C2-C12. The cells were treated with compounds at indicated final concentrations (diluted from the 1000× stock-solutions in DMSO to a final DMSO concentration of 0.1% v/v in H2O (Water For Injection, WFI, Fisherscientific #10378939)) or with the empty carrier DMSO at 0.1% v/v as control for 5 days. At day 5 after starting the treatments the cells were subjected to the alamarBlue® Proliferation Assay (Bio-Rad Serotec GmbH, BUF012B) according to the protocol of the manufacturer. The readout was taken with a multi-well plate-reader in the fluorescence mode with applying a filter for excitation at 560 nm (band width 10 nm) and for emission at 590 nm (band width 10 nm). Control treatments for growth inhibition with commercial compounds such as Methotrexate (MTREX) and Resveratrol (RES) were included on every plate. Some of the test compounds of the present invention were obtained and applied as their salts. According cases are indicated in the column “Specification” in Table 30 to Table 62 and by their sum formula in Table 63.
(§2) The assays were performed in duplicate or more replicates of independent single experiments each containing a six-fold replicate for every condition. For every individual plate, the measured fluorescence intensity values of the conditions with compound treatment were normalized against the corresponding equally weighted arithmetic mean of the fluorescence intensity values of the six DMSO treated control wells in order to obtain the relative values to a baseline level of 1.0.
(§3) Two independent outlier analyses were performed according to the methods by Peirce and Chauvenet (Ross, Journal of Engineering Technology 2003, 1-12). Outliers confirmed by at least one of the methods were excluded from the calculations but not more than one value out of six per compound within a single experiment. The weighted arithmetic mean (here abbreviated as AVEw) for each compound was calculated from the normalized values over all independent replicates of the single experiments comprising the six replicates each. The corresponding standard deviation for the weighted arithmetic mean was calculated according to the method described by Bronstein et al. (Bronstein, Semendjajew, Musiol, Muhlig, Taschenbuch der Mathematik, 5th edition 2001 (German), publisher: Verlag Harri Deutsch, Frankfurt am Main and Thun) and was combined with the Gauβ′ error propagation associated with the performed calculation for the normalization. The resulting standard deviation is herein referred to as “combined standard deviation”. […]

[2] = system: TANOUE cells (human B cell leukemia cells); test: Proliferation assay (alamarBlue) with TANOUE cells; conditions: Homo sapiens, B-cell, read-out: Activity Range: weighted arithmetic mean (AVEw) of normalized fluorescence intensity relative to DMSO basis level 1.0
Excerpt: as §1, §2, §3

[3] = system: RPMI-8402 cells (human T cell acute lymphoblastic leukemia cells); test: Proliferation assay (alamarBlue) with RPMI-8402 cells; conditions: Homo sapiens, read-out: Activity Range: weighted arithmetic mean (AVEw) of normalized fluorescence intensity relative to DMSO basis level 1.0
Excerpt: as §1, §2, §3

[4] = system: SCC-25 cells (human tongue squamous cell carcinoma cells); test: Proliferation assay (alamarBlue) with SCC-25 cells; conditions: Homo sapiens, read-out: Activity Range: weighted arithmetic mean (AVEw) of normalized fluorescence intensity relative to DMSO basis level 1.0
Excerpt: as §1, §2, §3

[5] = system: A-431 cells (human epidermoid squamous cell carcinoma cells); test: Proliferation assay (alamarBlue) with A-431 cells; conditions: Homo sapiens, 20 μM, read-out: Activity Range: weighted arithmetic mean (AVEw) of normalized fluorescence intensity relative to DMSO basis level 1.0
Excerpt: as §1, §2, §3

[6] = system: NB-4 cells (human acute promyelocytic leukemia cells); test: Proliferation assay (alamarBlue) with NB-4 cells; conditions: Homo sapiens, Table 32, compound at 20 μM, read-out: Activity Range (AVEw, weighted arithmetic mean of normalized fluorescence intensity, DMSO = 1.0)
Excerpt: as §1, §2, §3

[7] = system: HL-60 cells (human acute myeloid leukemia cells); test: Proliferation assay (alamarBlue) with HL-60 cells; conditions: Homo sapiens, Table 30, compound at 20 μM, read-out: Activity Range (AVEw, weighted arithmetic mean of normalized fluorescence intensity, DMSO = 1.0)
Excerpt: as §1, §2, §3

[8] = system: HPEKp cells (human epidermal keratinocyte progenitors, pooled); test: Proliferation assay (alamarBlue) with HPEKp cells; conditions: compound at 10 μM, read-out: Activity Range: weighted arithmetic mean (AVEw) of normalized fluorescence intensity, relative to DMSO basis level 1.0
Excerpt: as §1, §2, §3

[9] = system: MDA-MB-231 cells (human breast carcinoma cells); test: Proliferation assay (alamarBlue) with MDA-MB-231 cells; conditions: Homo sapiens, read-out: Activity Range: weighted arithmetic mean (AVEw) of normalized fluorescence intensity relative to DMSO basis level 1.0
Excerpt: as §1, §2, §3

[10] = system: CAL-27 cells (human tongue squamous cell carcinoma cells); test: Proliferation assay (alamarBlue) with CAL-27 cells; conditions: read-out: Activity Range: weighted arithmetic mean (AVEw) of normalized fluorescence intensity relative to DMSO basis level 1.0
Excerpt: as §1, §2, §3

[11] = system: BHY cells (human oral squamous cell carcinoma cells); test: Proliferation assay (alamarBlue) with BHY cells; conditions: read-out: Activity Range: weighted arithmetic mean (AVEw) of normalized fluorescence intensity relative to DMSO basis level 1.0
Excerpt: as §1, §2, §3

[12] = system: 23132/87 cells (human gastric adenocarcinoma cells); test: Proliferation assay (alamarBlue) with 23132/87 cells; conditions: read-out: Activity Range: weighted arithmetic mean (AVEw) of normalized fluorescence intensity relative to DMSO basis level 1.0
Excerpt: as §1, §2, §3

[13] = system: HH cells (human cutaneous T-cell lymphoma cells); test: Proliferation assay (alamarBlue) with HH cells; conditions: Table 34, compound at 20 μM, read-out: Activity Range (AVEw, weighted arithmetic mean of normalized fluorescence intensity, DMSO = 1.0)
Excerpt: as §1, §2, §3

Structure (SMILES) | activity at 20 µM [1] | activity at 20 µM [2] | activity at 20 µM [3] | activity at 20 µM [4] | activity at 20 µM [5] | activity at 20 µM [6] | activity at 20 µM [7] | activity at 10 µM [8] | activity at 20 µM [9] | activity at 20 µM [10] | activity at 20 µM [11] | activity at 20 µM [12] | activity at 20 µM [13]
O=Cc1ccc(Oc2ccc(C34CC5CC(CC(C5)C3)C4)cc2)cc1 [XPA-0028, 4-(4-(adamantan-1-yl)phenoxy)benzaldehyde] | 60 to 70% | 0 to 20% | 40 to 60% | 80 to 90% | 80 to 90% | 40 to 60% | 40 to 60% | 0 to 20% | 70 to 80% | – | – | – | –
OC1(c2ccc(Oc3ccc(C45CC6CC(CC(C6)C4)C5)cc3)cc2)COC1 [XPA-0140, 3-(4-(4-((3r,5r,7r)-adamantan-1-yl)phenoxy)phenyl)oxetan-3-ol] | 70 to 80% | 0 to 20% | 20 to 40% | 20 to 40% | 40 to 60% | 60 to 70% | 0 to 20% | 0 to 20% | 20 to 40% | 20 to 40% | 70 to 80% | 70 to 80% | 70 to 80%
CN1CCC(c2ccc(Oc3ccc(C(=O)O)cc3)cc2)CC1 [XPA-0036, 4-(4-(1-methylpiperidin-4-yl)phenoxy)benzoic acid] | – | – | – | – | – | – | – | – | 80 to 90% | – | – | – | –
CCOC(=O)c1ccc(Oc2ccc(C3CCOCC3)cc2)cc1 [XPA-0063, ethyl 4-(4-(tetrahydro-2H-pyran-4-yl)phenoxy)benzoate] | – | 80 to 90% | 80 to 90% | – | – | – | – | – | 80 to 90% | – | – | – | –
CCOC(=O)c1ccc(Oc2ccc(C3CCCCC3)cc2C2CO2)cc1 (stereo not shown) [XPA-1290, ethyl 4-(4-cyclohexyl-2-(oxiran-2-yl)phenoxy)benzoate] | – | 80 to 90% | – | – | – | – | – | 0 to 20% | 70 to 80% | – | – | – | –
CCOC(=O)c1ccc(Oc2ccc(CCN(C)C)cc2)cc1 [XPA-0060, ethyl 4-(4-(2-(dimethylamino)ethyl)phenoxy)benzoate] | 40 to 60% | – | 40 to 60% | 20 to 40% | 80 to 90% | 80 to 90% | – | 20 to 40% | 40 to 60% | 40 to 60% | 70 to 80% | – | 60 to 70%
CCOC(=O)c1ccc(Oc2ccc(C3CCCCC3)cc2C2CC2)cc1 [XPA-1295, ethyl 4-(4-cyclohexyl-2-cyclopropylphenoxy)benzoate] | – | – | – | – | – | – | – | 70 to 80% | – | – | – | – | –
OCc1ccc(Oc2ccc(C3CCCCC3)cc2)cc1 [XPA-0006, (4-(4-cyclohexylphenoxy)phenyl)methanol] | – | – | 60 to 70% | – | 70 to 80% | – | 80 to 90% | 40 to 60% | 60 to 70% | – | 80 to 90% | – | –
CCOC(=O)c1ccc(Oc2ccc(C3CCN(C)CC3)cc2)cc1 [XPA-0064, ethyl 4-(4-(1-methylpiperidin-4-yl)phenoxy)benzoate] | 0 to 20% | 0 to 20% | 0 to 20% | 0 to 20% | 0 to 20% | 20 to 40% | 70 to 80% | 0 to 20% | 40 to 60% | 0 to 20% | 0 to 20% | 70 to 80% | 40 to 60%
CCOC(=O)c1ncc(Oc2ccc(C34CC5CC(CC(C5)C3)C4)cc2)cn1 [XPA-1303, ethyl 5-(4-((3r,5r,7r)-adamantan-1-yl)phenoxy)pyrimidine-2-carboxylate] | – | 80 to 90% | 80 to 90% | – | – | – | – | – | – | – | – | – | –
COC1(c2ccc(Oc3ccc(C4CCCCC4)cc3)cc2)COC1 [XPA-0146, 3-(4-(4-cyclohexylphenoxy)phenyl)-3-methoxyoxetane] | – | 0 to 20% | 20 to 40% | – | 20 to 40% | 80 to 90% | 20 to 40% | 60 to 70% | 0 to 20% | 20 to 40% | 70 to 80% | 60 to 70% | –
c1ccc(COC2(c3ccc(Oc4ccc(C5CCCCC5)cc4)cc3)CNC2)cc1 [XPA-1317, 3-(benzyloxy)-3-(4-(4-cyclohexylphenoxy)phenyl)azetidine] | 0 to 20% | 0 to 20% | 0 to 20% | 0 to 20% | 0 to 20% | 0 to 20% | 0 to 20% | 0 to 20% | 0 to 20% | 0 to 20% | 0 to 20% | 0 to 20% | 0 to 20%
COC1(c2ccc(Oc3ccc(C45CC6CC(CC(C6)C4)C5)cc3)cc2)CN(C)C1 [XPA-0238, 3-(4-(4-((3r,5r,7r)-adamantan-1-yl)phenoxy)phenyl)-3-methoxy-1-methylazetidine] | 0 to 20% | 0 to 20% | 0 to 20% | 0 to 20% | 0 to 20% | 0 to 20% | 0 to 20% | 40 to 60% | 0 to 20% | 0 to 20% | 0 to 20% | 0 to 20% | 0 to 20%
C=Cc1cc(C2CCCCC2)ccc1Oc1ccc(C(=O)OCC)cc1 [XPA-1284, ethyl 4-(4-cyclohexyl-2-vinylphenoxy)benzoate] | 20 to 40% | 0 to 20% | 20 to 40% | 70 to 80% | 40 to 60% | 20 to 40% | 0 to 20% | 0 to 20% | 20 to 40% | 60 to 70% | – | 70 to 80% | 60 to 70%

From patent publication US20240140895A1, “NOVEL AROMATIC MOLECULES” (XENIOPRO GmbH, priority 2018, published 2024)
